According to patent US5698574A, “5-membered heteroaryl-oxazolidinones” (Bayer Aktiengesellschaft, priority 1994, dated 1997):
Values after ≈ are worked out from the molar mass of the structure shown.

Key:
Experiment in all cases: minimum inhibitory concentration (MIC), series dilution on Iso-Sensitest agar
Type in all cases: cell-based
Staph 25701 = details: 37° C., about 20 hours, about 10^4 colony-forming particles per point
Experimental: (§1) The minimum inhibitory concentrations (MIC) were determined by the series dilution method on Iso-Sensitest agar (Oxoid). A series of agar plates which contained concentration of the active compound which decreased by two-fold dilution in each case was prepared for each test substance. The agar plates were inoculated with a Multipoint inoculator (Denley). Overnight cultures of the pathogens which had been diluted beforehand such that each inoculation point contained about 10^4 colony-forming particles were used for the inoculation. The inoculated agar plates were incubated at 37° C. and the germ growth was read off alter about 20 hours. The MIC value (μg/ml) indicates the lowest concentration of active compound at which no growth was detectable with the naked eye.

Klebs. 57 USA = details: 37° C., about 20 hours, about 10^4 colony-forming particles per point
Experimental: as §1

Psdm. Bonn = details: 37° C., about 20 hours, about 10^4 colony-forming particles per point
Experimental: as §1

E. coli Neumann = details: Escherichia coli, 37° C., about 20 hours, about 10^4 colony-forming particles per point
Experimental: as §1

Staph 9TV = details: 37° C., about 20 hours, about 10^4 colony-forming particles per point
Experimental: as §1

Staph 133 = details: 37° C., about 20 hours, about 10^4 colony-forming particles per point
Experimental: as §1

Staph 48N = details: 37° C., about 20 hours, about 10^4 colony-forming particles per point
Experimental: as §1

Structure (SMILES) | MIC (Staph 25701) | MIC (Klebs. 57 USA) | MIC (Psdm. Bonn) | MIC (E. coli Neumann) | MIC (Staph 9TV) | MIC (Staph 133) | MIC (Staph 48N)
CC(=O)NC[C@H]1CN(c2cc3cc(Br)ccc3s2)C(=O)O1 [Example 22] | 1 µg/mL (≈ 2.71 µM) | > 32 µg/mL | > 32 µg/mL | > 32 µg/mL | 2 µg/mL (≈ 5.42 µM) | 4 µg/mL (≈ 10.8 µM) | 2 µg/mL (≈ 5.42 µM)
CC(=O)NC[C@H]1CN(c2cc(Br)cs2)C(=O)O1 [Example 26] | 8 µg/mL (≈ 25.1 µM) | > 32 µg/mL | > 32 µg/mL | > 32 µg/mL | 8 µg/mL (≈ 25.1 µM) | 8 µg/mL (≈ 25.1 µM) | 8 µg/mL (≈ 25.1 µM)
CC(=O)NC[C@H]1CN(c2ccc(-c3ccc(C)cc3)s2)C(=O)O1 [Example 39, (5S)-3-{2[5-(4-Methylphenyl)]thiophenyl}-5-acetyl-aminomethyl-oxazolidin-2-one] | 2 µg/mL (≈ 6.05 µM) | > 32 µg/mL | > 32 µg/mL | > 32 µg/mL | 1 µg/mL (≈ 3.03 µM) | 2 µg/mL (≈ 6.05 µM) | 2 µg/mL (≈ 6.05 µM)
CC(=O)NC[C@H]1CN(c2ccc(-c3ccccc3C=O)s2)C(=O)O1 [Example 40, (5S)-3-{2[5-(2-Formylphenyl)]thiophenyl}-5-acetylamino-methyl-oxazolidin-2-one] | 2 µg/mL (≈ 5.81 µM) | > 32 µg/mL | > 32 µg/mL | > 32 µg/mL | 1 µg/mL (≈ 2.9 µM) | 2 µg/mL (≈ 5.81 µM) | 4 µg/mL (≈ 11.6 µM)
CC(=O)NC[C@H]1CN(c2ccc(-c3csc(C=O)c3)s2)C(=O)O1 [Example 41] | 2 µg/mL (≈ 5.71 µM) | > 32 µg/mL | > 32 µg/mL | > 32 µg/mL | 2 µg/mL (≈ 5.71 µM) | 2 µg/mL (≈ 5.71 µM) | 2 µg/mL (≈ 5.71 µM)
CC(=O)NC[C@H]1CN(c2ccc(-c3cccc(N)c3)s2)C(=O)O1 [Example 56] | 4 µg/mL (≈ 12.1 µM) | > 32 µg/mL | > 32 µg/mL | > 32 µg/mL | 4 µg/mL (≈ 12.1 µM) | 8 µg/mL (≈ 24.1 µM) | 4 µg/mL (≈ 12.1 µM)
CC(=O)NC[C@H]1CN(c2cc(-c3ccc(C=O)cc3)cs2)C(=O)O1 [Example 60] | 8 µg/mL (≈ 23.2 µM) | > 32 µg/mL | > 32 µg/mL | > 32 µg/mL | 8 µg/mL (≈ 23.2 µM) | 16 µg/mL (≈ 46.5 µM) | 8 µg/mL (≈ 23.2 µM)
CC(=O)NC[C@H]1CN(c2ccc(-c3ccc(CO)cc3)s2)C(=O)O1 [Example 101, (5S)-3-(2-[5-(4-hydroxymethyl)phenyl]thiophenyl)-5-acetylamino-methyl-oxazolidin-2-one] | 2 µg/mL (≈ 5.77 µM) | > 32 µg/mL | > 32 µg/mL | > 32 µg/mL | 2 µg/mL (≈ 5.77 µM) | 2 µg/mL (≈ 5.77 µM) | 2 µg/mL (≈ 5.77 µM)
CC(=O)NC[C@H]1CN(c2ccc(-c3cccc(CO)c3)s2)C(=O)O1 [Example 102] | 8 µg/mL (≈ 23.1 µM) | > 32 µg/mL | > 32 µg/mL | > 32 µg/mL | 8 µg/mL (≈ 23.1 µM) | 8 µg/mL (≈ 23.1 µM) | 8 µg/mL (≈ 23.1 µM)

The remaining lines, values ahead:

MIC (Staph 25701) | MIC (Klebs. 57 USA) | MIC (Psdm. Bonn) | MIC (E. coli Neumann) | MIC (Staph 9TV) | MIC (Staph 133) | MIC (Staph 48N) | Structure (SMILES)
4 µg/mL (≈ 12.6 µM) | > 32 µg/mL | > 32 µg/mL | > 32 µg/mL | 2 µg/mL (≈ 6.32 µM) | 2 µg/mL (≈ 6.32 µM) | 4 µg/mL (≈ 12.6 µM) | CC(=O)NC[C@H]1CN(c2ccc(-c3ccccc3)s2)C(=O)O1 [Example 42]
1 µg/mL (≈ 2.9 µM) | > 32 µg/mL | > 32 µg/mL | > 32 µg/mL | 1 µg/mL (≈ 2.9 µM) | 1 µg/mL (≈ 2.9 µM) | 1 µg/mL (≈ 2.9 µM) | CC(=O)NC[C@H]1CN(c2ccc(-c3cccc(C=O)c3)s2)C(=O)O1 [Example 43]
0.25 µg/mL (≈ 0.726 µM) | > 32 µg/mL | > 32 µg/mL | > 32 µg/mL | 0.25 µg/mL (≈ 0.726 µM) | 0.25 µg/mL (≈ 0.726 µM) | 0.25 µg/mL (≈ 0.726 µM) | CC(=O)NC[C@H]1CN(c2ccc(-c3ccc(C=O)cc3)s2)C(=O)O1 [Example 44]
2 µg/mL (≈ 5.58 µM) | > 32 µg/mL | > 32 µg/mL | > 32 µg/mL | 0.5 µg/mL (≈ 1.4 µM) | 2 µg/mL (≈ 5.58 µM) | 2 µg/mL (≈ 5.58 µM) | CC(=O)NC[C@H]1CN(c2ccc(-c3ccc(C(C)=O)cc3)s2)C(=O)O1 [Example 46]
2 µg/mL (≈ 5.98 µM) | > 32 µg/mL | > 32 µg/mL | > 32 µg/mL | 1 µg/mL (≈ 2.99 µM) | 4 µg/mL (≈ 12 µM) | 2 µg/mL (≈ 5.98 µM) | CC(=O)NC[C@H]1CN(c2ccc(-c3ccc(F)cc3)s2)C(=O)O1 [Example 51]
2 µg/mL (≈ 5.81 µM) | > 32 µg/mL | > 32 µg/mL | > 32 µg/mL | 1 µg/mL (≈ 2.9 µM) | 4 µg/mL (≈ 11.6 µM) | 2 µg/mL (≈ 5.81 µM) | CC(=O)NC[C@H]1CN(c2cc(-c3cccc(C=O)c3)cs2)C(=O)O1 [Example 59]
